# Values of other authors in patent publication US5217965A, “Stabilized solid dosage forms of choline metal carboxymethylcellulose salicylate compositions” (Euroceltique, S.A., priority 1991, dated 1993).
# Details: background
smiles,measurement,value
C[N+](C)(C)CCO.O=C([O-])c1ccccc1O [Choline salicylate],Hygroscopicity,highly hygroscopic
